Measurements as given in US12187704B2, “Triazine derivatives and methods of use thereof” (Ascletis BioScience Co., Ltd., priority 2022, dated 2025).
pEC50: −log10 of the molar value. Where two headings read alike, the source gives them in different places.

Legend:
[1] = in vivo; details: rat
Procedure: (§1) Oral administration: The compound was administered with a volume ratio of Solutol:PEG400:Tween80:Saline=10:40:2:48 (v/v/v) at a dose of 10 mg/kg. At 0.25 h, 0.5 h, 1 h, 2 h, 4 h, 8 h, 10 h, 12 h and 24 h after drug administration, blood was serially collected from the fundus venous plexus in EP tubes containing EDTA, centrifuged at 8000 rpm/min for 5 min and then the upper layer of plasma was frozen at −80° C. and stored for LC-MS/MS analysis.
(§2) Intravenous administration: the compound was administered with a volume ratio of 10% DMSO/30% PEG400/60% water (v/v/v) at a dose of 1 mg/kg). At 0.0833 h, 0.25 h, 0.5 h, 1 h, 2 h, 4 h, 8 h, 12 h and 24 h after drug administration, blood was serially collected from the fundic venous plexus in EP tubes containing EDTA, centrifuged at 8000 rpm/min for 5 min and then the upper layer of plasma was frozen at −80° C. and stored for LC-MS/MS analysis.
(§3) The pharmacokinetic parameters were calculated from the blood concentration-time data obtained from the tests using WinNonlin software.

[2] = test system: SARS-COV-2 Omicron hCoV-19/USA/MD HP20874/2021 (B.1.1.529) strain; test: In vitro antiviral activity against SARS-COV-2 Omicron B.1.1.529 in Calu-3 cells; assay type: cell-based; details: Severe acute respiratory syndrome coronavirus 2, Calu-3, 48 h
[3] = in vivo; details: monkey, crab-eating monkeys, plasma
Procedure: as §1, with “The compounds were” for “The compound was”, “Solutol:PEG400:Tween80:Saline=10:40:2:48 (v/v/v/v)” for “Solutol:PEG400:Tween80:Saline=10:40:2:48 (v/v/v)”, “of 2” for “of 10”
as §2, with “with” for “with a volume ratio of”
as §3

[4] = test system: hCoV-19/USA/Chicago IL/2022 (BA.5.2); test: In vitro antiviral activity against SARS-COV-2 BA.5.2 in Calu-3 cells; assay type: cell-based; details: Severe acute respiratory syndrome coronavirus 2, Calu-3, 48 h
[5] = intravenous, 1 mg/kg, read-out: Intravenous injection AUClast
[6] = oral, 2 mg/kg, read-out: Oral AUClast

Row | Structure (SMILES) | AUC(0-t) ([1]; iv, 1 mg/kg) [ng·h/mL] | AUC(0-t) ([1]; po, 10 mg/kg) [ng·h/mL] | pEC50 [2] | AUC(0-t) [3, 5] [ng·h/mL] | AUC(0-t) [3, 6] [ng·h/mL] | pEC50 [4]
1 | [2H]C([2H])([2H])n1cc2cc(Nc3nc(=O)n(-c4cncc(Cl)c4)c(=O)n3Cc3cc(F)c(F)cc3F)c(Br)cc2n1 [Compound 6] | 19500 | 205000 | 8.00 | 35700 | 59000 | 7.70
2 | Cn1cc2cc(Nc3nc(=O)n(-c4cncnc4)c(=O)n3Cc3cc(F)c(F)cc3F)c(Cl)cc2n1 [Compound 1, 6-((6-chloro-2-methyl-2H-indazol-5-yl)amino)-3-(pyrimidin-5-yl)-1-(2,4,5-trifluorobenzyl)-1,3,5-triazine-2,4(1H,3H)-dione] | – | – | 6.71 | – | – | 6.49
3 | [2H]C([2H])([2H])n1cc2cc(Nc3nc(=O)n(-c4cncc(Cl)c4)c(=O)n3Cc3cc(F)c(F)cc3F)c(Cl)cc2n1 [Compound 5] | 19000 | 224000 | 8.05 | 38400 | 60700 | 7.82
4 | Cn1cc2cc(Nc3nc(=O)n(-c4cc(Cl)cnc4Cl)c(=O)n3Cc3cc(F)c(F)cc3F)c(Cl)cc2n1 [Compound 3] | – | – | 7.08 | – | – | 6.83
5 | O=c1nc(Nc2cc3cn(CCO)nc3cc2Cl)n(Cc2cc(F)c(F)cc2F)c(=O)n1-c1cncc(Cl)c1 [Compound 4] | 2040 | 10800 | 7.89 | 10300 | 15200 | 7.74
6 | Cn1cc2cc(Nc3nc(=O)n(-c4cc(F)cnc4Cl)c(=O)n3Cc3cc(F)c(F)cc3F)c(Cl)cc2n1 [Compound 2] | – | – | 7.01 | – | – | 6.81
